{"source": "patent US20240018470A1", "about": "“METHOD OF MANIPULATING PLURIPOTENCY IN CELLS” (YALE UNIVERSITY, priority 2022, published 2024)", "key": {"Xenopus embryos [1]": {"test_system": "Xenopus embryos", "assay": "Organ situs (left-right patterning) scoring in stage 45 tadpoles", "format": "in vivo, Xenopus tropicalis", "settings": "blastula/gastrula embryos treated stage 8 to stage 12, 50 nM", "experimental": "Stage 45 Xenopus embryos were paralyzed with benzocaine or tricaine and scored with a light stereomicroscope. Cardiac looping was determined by position of the outflow tract; D-loop: rightward, L-loop: leftward; A-loop: midline. Normal intestinal looping was scored as counter-clockwise rotation of the gut, while abnormal intestinal looping was scored as completely inverse gut rotation (clockwise) or complete lack of looping (un-looped). While a completely inverted gut rotation is clearly an abnormality of LR patterning, an unlooped gut is less clear so the present study only considered an unlooped gut as abnormal situs when combined with abnormal placement (left-sided or midline) of the gall bladder. To quantify total abnormal organ situs, each tadpole was counted only once, regardless of whether multiple organs were affected.\n(§1) Normal embryonic medium is 1/9× modified Ringer's (MR) containing 11 mM NaCl, 0.2 mM KCl, 0.2 mM CaCl2), 0.1 mM Mg2Cl and 0.55 mM HEPES. To allow Ergtoxin to penetrate the embryos, the present study manually removed the vitelline envelope of stage 8 embryos and incubated embryos in 1/9×MR containing 50 nM Ergtoxin (Alomone STE-450) until stage 12. Embryos were then transferred back into 1/9×MR lacking Ergtoxin to develop until stage 45 in order to score organ situs. Barium chloride was applied into the medium at 20 mM and embryos were thoroughly rinsed in 1/9×MR after each incubation period for further development in Ba2+-free medium. For extracellular K^+ manipulations, the KCl concentration in 1/9×MR was modified from 0.2 mM (normal) to 20 mM (high) or 0 mM (low). The ionophore valinomycin (ACROS) and L-type VGCC blocker Nifedipine (ACROS) were diluted in DMSO as stock solutions and applied to embryos in 1/9×MR at 2 nM and 10 μM respectively. Treatments performed during gastrulation were applied from stage 8 through stage 12, and embryos were then rinsed thoroughly and returned into 1/9×MR. For rapamycin, the present study created a standard stock solution of 50 mg/ml in DMSO. The stock solution was diluted 1:2500 in the appropriate embryonic media (final 20 μg/ml). Embryos were treated at stage 7 and then fixed at stage 11 for in situ hybridization.\n(§2) In experiments where embryos were evaluated for phenotypes and scored (gastrulation, left-right patterning, in situ hybridizations) the present study carried out three to five biological replicates and Fisher's exact test to evaluate statistical significance. The animal cap experiment was performed twice with a total score of four to eight animal caps per experiment. For the calcium transient analyses, data was collected from three to five embryos in each experiment in three independent experiments, and statistical analyses on GCaMP/mCherry fluorescence intensity as well as Ca^2+ transient area were performed using student's t-test. For whole cell electrophysiological recordings, three to five embryos (two cells each) were examined for their membrane potential and statistical significance was tested by student's t-test. Graphs were designed using GraphPad Prism software. Models were created with BioRender.com."}, "hESCs [2]": {"test_system": "hESCs", "assay": "hESC pluripotency marker qPCR", "format": "cell-based, human", "settings": "25 nM; OCT4 and SOX2 by day 2, all three genes on day 5", "experimental": "hESCs were grown in mTeSR1 (STEMCELL Technologies) in tissue culture dishes coated with Matrigel (Corning; 1:200 in DMEM/F12) and kept at 37° C., 5% CO2. The cell lines used were ESI017 (ESIBIO) and H9. Cells were routinely passaged using dispase (STEMCELL Technologies) and tested for mycoplasma contamination and found negative. For rapamycin experiments, cells were grown in MEF-conditioned HUESM media supplemented with 20 ng/ml bFGF with or without 100 nM rapamycin, which the present study found to increase the survival of rapamycin treated cells compared to cells grown in mTeSR1.\nFor qPCR, hESCs were grown with or without ErgToxin (25 nM) for the indicated times. RNA collection and DNase treatment were performed using the RNAqueous®-Micro Total RNA Isolation Kit (AM1931) and cDNA was synthesized with the SuperScript Vilo cDNA Synthesis Kit (Fisher Scientific 11754-050). qPCR measurements were collected using SYBR Green reagent (LifeTech-4367659) on a Step OnePlus instrument (Applied Biosciences). Data were normalized using the housekeeping gene GAPDH. Primers for qPCR were: OCT4: 5′-[…]-3′ (SEQ ID NO:12), 5′-[…]-3′ (SEQ ID NO:13), SOX2: 5′-[…]-3′ (SEQ ID NO:14), 5′-[…]-3′ (SEQ ID NO:15), NANOG: 5′-[…]-3′ (SEQ ID NO:16), 5′-[…]-3′ (SEQ ID NO:17), GAPDH: 5′-[…]-3′ (SEQ ID NO:18), 5′-[…]-3′ (SEQ ID NO:19)."}, "Xenopus embryos [3]": {"test_system": "Xenopus embryos", "assay": "Gastrulation scoring (incomplete blastopore closure) in treated or kcnh6-depleted embryos", "format": "in vivo, Xenopus tropicalis", "settings": "blastula/gastrula embryos treated stage 8 to stage 12, 50 nM", "experimental": "All injections of Xenopus embryos were performed at the one-cell stage using a fine glass needle and Picospritzer system. A kcnh6 translation blocking (kcnh6 MO, 5′-[…]-3′, SEQ ID NO:1) and a scrambled morpholino oligonucleotide were obtained from Gene Tools LLC and injected at 10 ng to deplete kcnh6 or as a control, respectively. CRISPR sgRNAs for kcnh6 targeted either exon 3 or exon 4 based on the v7.1 gene model of the X. tropicalis genome (CRex3: 5′-[…]-3′, SEQ ID NO:2 and CRex4: 5′-[…]-3′, SEQ ID NO:3). CRISPR sgRNAs for cacna1c (5′-[…]-3′, SEQ ID NO:4) and cacna1g (5′-[…]-3′, SEQ ID NO:5) were designed from the v7.1 model of the Xenopus tropicalis genome. For F0 CRISPR knockdown, embryos were injected with 1.5 ng Cas9 Protein (PNA-Bio) and 400 pg of targeting sgRNA and raised to desired stages. […] Full length human KCNH6 (NM 030779.3; cloned in pCS107), GCaMP6 (subcloned in pCSDest) and mCherry cDNAs (Addgene #34935; in pCS2+), were used to generate capped mRNAs in vitro by first linearizing with appropriate restriction enzymes and then transcribing with the mMessage machine kit (Ambion). mRNAs were injected at 3 pg (human KCNH6), 150 pg (GCaMP6) and 150 pg (mCherry) per embryo. Embryos were raised at 21° C. to allow time for sufficient expression levels at blastula/gastrula stages.\nas §1, §2"}, "hESCs [4]": {"test_system": "hESCs", "assay": "hESC BMP4-induced differentiation, pluripotency marker immunofluorescence", "format": "cell-based, human", "settings": "BMP4 50 ng/ml, at 12 hours; similar trend in NANOG", "experimental": "(§3) Cells were dissociated with accutase and seeded onto 8 well imaging slides (ibidi 80826) at a density of 4-6×10^4/cm^2. Cells were seeded and maintained in Rock-inhibitor Y27672 (MCE; 10 μM) to increase survival and the uniformity of response. Treatments with 1 mM BaCl2 or 10 or 25 nM Ergtoxin or 100 nM rapamycin were initiated 4 hours after seeding. Differentiation was initiated 24 hours after seeding where indicated. To initiate differentiation, the media was replenished with/without BaCl2 or Ergtoxin and treated with the indicated growth factors or small molecules. Cells were incubated for the indicated times without media change before fixation.\nCells were fixed for 30 min in 4% paraformaldehyde, rinsed twice with DPBS (without Ca^2+ and Mg^2+, denoted DPBS^−/−), and blocked for 30 min at room temperature. The blocking solution contained 3% donkey serum and 0.1% Triton X-100 in 1×DPBS^−/−. After blocking, the cells were incubated with primary antibodies at room temperature for 2 hours. Antibodies and concentrations are listed below. […]\nImages were acquired using a 20×, NA 0.75 objective on an Olympus IX83 inverted epifluorescence microscope or an Olympus/Andor spinning disk confocal microscope. […] This segmentation was cleaned (to remove debris and to separate merged cells) and mean nuclear protein intensities as well as standard errors were quantified using a custom MATLAB code. […]"}, "hESCs [5]": {"test_system": "hESCs", "assay": "hESC pluripotency marker immunofluorescence", "format": "cell-based, human", "experimental": "hESCs were grown in mTeSR1 ([…] Technologies) in tissue culture dishes coated with Matrigel (Corning; 1:200 in DMEM/F12) and kept at 37° C., 5% CO2. The cell lines used were ESI017 (ESIBIO) and H9.\nas §3\nCells were fixed for 30 min in 4% paraformaldehyde, rinsed twice with DPBS (without Ca^2+ and Mg^2+, denoted DPBS^−/−), and blocked for 30 min at room temperature. The blocking solution contained 3% donkey serum and 0.1% Triton X-100 in 1×DPBS^−/−. After blocking, the cells were incubated with primary antibodies at room temperature for 2 hours. Antibodies and concentrations are listed below. Cells were washed three times with DPBST (1×DPBS^−/− with Tween 20) and incubated with secondary antibodies (AlexaFluor 488 A21206, AlexaFluor 555 A31570 and A21432, and AlexaFluor 647 A31571, Thermo Fisher; 1:500) and DAPI for 30 min at room temperature. After secondary antibody incubation, samples were washed in DPBST and then DPBS at room temperature.\nImages were acquired using a 20×, NA 0.75 objective on an Olympus IX83 inverted epifluorescence microscope or an Olympus/Andor spinning disk confocal microscope. Cell segmentation was performed using ilastik software. This segmentation was cleaned (to remove debris and to separate merged cells) and mean nuclear protein intensities as well as standard errors were quantified using a custom MATLAB code. Nuclear intensities were normalized by DAPI to correct for intensity variation due to optics. […]"}, "[6]": {"test_system": "animal pole cells (prospective ectoderm)", "assay": "Intracellular Vm recordings in animal pole cells", "format": "in vivo, Xenopus tropicalis", "settings": "high K^+ and ½ sodium replacement with choline; stage 9 animal pole", "text": "For recordings, devitellinized, stage 10 kcnh6 or control MO injected embryos were mounted into non-toxic clay with their animal pole exposed and covered with 1/9×MR. To investigate the resting potential, animal pole cells were impaled with a high-impedance (˜70 Me), sharp microelectrode filled with 3 M KCl for intracellular recordings. The recordings were made using an Axon 200B amplifier and digitized using a Digidata 1320 digitizer. Jclamp software for Windows was used in current clamp mode. All electrodes were zeroed just before entry into the cells.\nFor the series of intracellular recordings in high K^+ and choline treated embryos, stage 8-9 embryos were impaled similarly with an electrode of […]. These recordings were made using a HEKA EPC10 amplifier. The present study used HEKA PatchMaster v2x67 software for Windows. […]\nIn experiments where embryos were evaluated for phenotypes and scored (gastrulation, left-right patterning, in situ hybridizations) the present study carried out three to five biological replicates and Fisher's exact test to evaluate statistical significance. […] For the calcium transient analyses, data was collected from three to five embryos in each experiment in three independent experiments, and statistical analyses on GCaMP/mCherry fluorescence intensity as well as Ca^2+ transient area were performed using student's t-test. […]"}}, "note": "No end group written: not given here.", "data": [{"compound": "Ergtoxin: a scorpion peptide that specifically acts as a pore blocker of the KCNH channel family (Alomone STE-450) (DRDSCVDKSRCAKYGYYQECQDCCKNAGHNGGTCMFFKCKCA; ends and bridges not checked; cysteine pairing not given here; UniProt Q86QT3 21-62, looked up)", "values": [{"measurement": "LR defects", "setting": "Xenopus embryos [1]", "result": "identical gastrulation and LR defects"}, {"measurement": "OCT4, SOX2 and NANOG transcript level", "setting": "hESCs [2]", "result": "upregulation of these genes at the transcript level"}, {"measurement": "gastrulation defects", "setting": "Xenopus embryos [3]", "result": "identical gastrulation and LR defects"}, {"measurement": "downregulation of pluripotency markers such as SOX2", "setting": "hESCs [4]", "result": "significant delay"}, {"measurement": "effect on pluripotency markers in the presence of rapamycin", "setting": "hESCs [5]; 25 nM Ergtoxin with 100 nM rapamycin", "result": "no effect"}, {"measurement": "pluripotency markers OCT4 and SOX2", "setting": "hESCs [5]; hESCs grown for two days, 25 nM Ergtoxin or 1 mM Barium, immunostaining and qPCR", "result": "modest but significant elevation"}]}, {"compound": "C[N+](C)(C)CCO", "note": "[choline]", "values": [{"measurement": "Vm", "setting": "[6]", "result": "−41±4", "unit": "mV"}]}, {"compound": "CO[C@H]1C[C@@H]2CC[C@@H](C)[C@@](O)(O2)C(=O)C(=O)N2CCCC[C@H]2C(=O)O[C@H]([C@H](C)C[C@@H]2CC[C@@H](O)[C@H](OC)C2)CC(=O)[C@H](C)/C=C(\\C)[C@@H](O)[C@@H](OC)C(=O)[C@H](C)C[C@H](C)/C=C/C=C/C=C/1C", "note": "[rapamycin]", "values": [{"measurement": "final cell numbers per well", "setting": "hESCs [5]; hESCs, rapamycin 100 nM, 5 days", "result": "reduce the final cell numbers per well"}]}]}
